Assay results taken from patent US8574605B2, “Methods for the preparation of concentrated aqueous bromine solutions and high activity bromine-containing solids” (Enviro Tech Chemical Services, Inc., priority 2004, dated 2013).

Assay: Dissolution of the crystalline solid in water
Type: physicochemical
Details: weighed amount of crystalline mass dissolved in water
Protocol: The slurry was stirred and 50% NaOH (102.7 g) was slowly added as the flask was chilled in an ice bath to keep the temperature of the flask contents at around 75° F. Using a dropping funnel, elemental bromine (67.3 g) was dispensed at a rate of about one drop per second to the reaction medium, also with stirring and cooling to maintain a reaction temperature of 68° F. When the bromine addition was complete, the pH of the reaction medium was measured to be 1.97. A single charge of powdered trichloroisocyanuric acid (90.4% available Cl2) (33.1 g) was then delivered to the reaction medium through one of the necks of the flask. Stirring and cooling continued as normal as a fine powdery precipitate of cyanuric acid developed. After 10 minutes, 50% NaOH (11 g) was added dropwise in order to diminish the amount of bromine vapors that were fuming from the reaction medium. The cyanuric acid precipitate was then removed by vacuum filtration. […] The supernatant liquid above the crystals analyzed as 22.7% as Br2 (10.1% as Cl2), indicating the aqueous phase was losing active ingredient at the expense of crystal growth. […]

Q: For O.O=S(=O)([O-])NBr.[Na+] [hydrated sodium N-bromosulfamate], which dissolution in water is on record?
A: dissolved rapidly and completely
